Data set [1] deals with rat. The experiment in a line: Acute toxicity in the oral rat, LD50. The class given is in vivo.
The test system of data set [2] is rat. The experiment in a line: Acute toxicity in the rat by inhalation, LD50. The class given is in vivo. Particulars: 4 hours.
Another data set can be described thus: Inflammability in air. The class given is physicochemical. The following applies: marked § flammable.

As for `FC(F)OC(F)(F)C(F)(F)OC(F)F` [HCF2OCF2CF2OCF2H, 1-difluoromethoxy-1,1,2,2-tetrafluoroethyl difluoromethyl ether], the “Acute toxicity in the oral rat, LD50” value in the data set on rat [1] is greater than 5000 ppmv/4 hours. In addition, the “Acute toxicity in the rat by inhalation, LD50” value (shortened to “Acute toxicity in the rat”) with rat [2] is given as greater than 32000 ppmv/4 hours.
`CC(F)(Cl)Cl` [HCFC 141b, 1,1-dichloro-1-fluoroethane]: the “Acute toxicity in the oral rat, LD50” value with rat [1] is greater than 5000 ppmv/4 hours. The “Inflammability in air, % volume” value in the data set “Inflammability in air” was 7.6-17.7§ % volume. Besides, in the data set on rat [2], the “Acute toxicity in the rat” value is given as 62000 ppmv/4 hours.
On to `FC(Cl)(Cl)Cl` [CFC 11, trichloro-fluoromethane], for which the “Acute toxicity in the oral rat, LD50” value in the data set on rat [1] is on record as greater than 1000 ppmv/4 hours. Besides, the “Acute toxicity in the rat” value in the data set with rat [2] was 26200 ppmv/4 hours.
Regarding `FC(F)OC(F)(F)OC(F)F` [HCF2OCF2OCF2H, difluoromethoxy-bis(difluoromethyl ether)], in the data set with rat [1], the “Acute toxicity in the oral rat, LD50” value is greater than 5000 ppmv/4 hours. In the data set with rat [2], the “Acute toxicity in the rat” value is greater than 32000 ppmv/4 hours.

Values taken from patent US6458862B1, “Foaming agents” (priority 1998, dated 2002).
